e = 2'-O-(2-methoxyethyl) (MOE); d = 2'-deoxy (DNA)

In this data set the test system is human TGF-beta1 mRNA. In words: Dose-dependent confirmation of antisense inhibition of human TGF-beta1 in HuVEC cells, electroporation (Example 6). The class given is cell-based. As for the experimental part: The gapmers from Example 5 (see Table 5) were also tested at various doses in HuVEC cells using electroporation as the transfection reagent. Cells were plated at a density of 20,000 cells per well and transfected using electroporation with 0.15625 nM, 0.3125 nM, 0.625 nM, 1.25 nM, 2.5 nM, 5 nM, 10 nM, and 20 nM concentrations of antisense oligonucleotide for 4 hours, as specified in Table 6. After a recovery period of approximately 16 hours, RNA was isolated from the cells and TGF-beta1 mRNA levels were measured by quantitative real-time PCR. TGF-beta1 mRNA levels were adjusted according to total RNA content, as measured by RIBOGREEN®. Results are presented as percent inhibition of TGF-beta1, relative to untreated control cells.

On to “414036 (antisense GTGTCCTTAAATACAGCCCC; sugars from the 5' end e2 d13 e5, backbone and methylation of C not given here) [compound 414036]”, for which the “percent inhibition of TGF-beta1 mRNA relative to untreated control cells” value by setting is: (0.15625 nM oligonucleotide) 10%; (0.3125 nM oligonucleotide) 38%; (0.625 nM oligonucleotide) 55%; (1.25 nM oligonucleotide) 74%; (2.5 nM oligonucleotide) 83%; (5.00 nM oligonucleotide) 92%. The “percent inhibition of TGF-beta1 mRNA relative to untreated control cells” value by setting is: (10.00 nM oligonucleotide) 94%; (20 nM oligonucleotide) 92%.

These data come from US20110172296A1, “MODULATION OF TRANSFORMING GROWTH FACTOR-BETA 1 EXPRESSION” (priority 2010, published 2011).
